“Also recorded” adds a separate entry of the source.
What was measured:
Type in all cases: in vivo, mouse
[1] = system: A375M human melanoma xenograft; assay: A375M human melanoma xenograft study, tumor volume and plasma MIA ELISA (Example 2)
Method: (§1) MIA ELISA Assay: Equal numbers of human melanoma and colorectal carcinoma cells (˜250,000 cells for each cell line) were seeded onto tissue culture plates and the culture medium for each cell line was collected 48 hr later. Levels of MIA in culture media or plasma were measured by a commercial single-step ELISA kit according to the manufacturer's protocol (Roche Diagnostics Corporation, Indianapolis, Ind.). MIA concentrations in test samples were calculated using a standard curve ranging from 3-37 ng/ml. When the MIA concentration exceeded the highest standard concentration, the samples were diluted 1:5 and assayed again to have the results fall within the linear range of the standard curve. Data were evaluated using the Student t-test (two-tailed distribution, two-sample unequal variance), using P≦0.05 as the level of significance.
(§2) An A375 human melanoma xenograft study was carried out with female athymic nu/nu mice (8-12 weeks old) purchased from Charles River Laboratories (Wilmington, Mass.). Approximately 2.5×10^6 cells were implanted subcutaneously (s.c.) into the hind flank region of mice. Plasma samples were collected when tumors reached an average size of 250 mm^3 (n=10) and stored at −80° C. prior to MIA analysis. Dosing typically began when tumors reached an average size of 250 mm^3. Caliper measurements were performed twice weekly to estimate tumor volume using the formula: (a×b^2)×0.5, where “a” is the largest diameter and “b” is the length perpendicular to the diameter.
In a first experiment, A375M human melanoma tumor-bearing mice (n=5) were randomized and dosed orally with CHIR-265 at 100 mg/kg (n=5) or vehicle (n=5) once every other day. Tumor-bearing animals treated with PEG400 buffer alone were used as vehicle control. […] Plasma samples were collected 48 hours post the fourth dose (day 10) for MIA analysis by ELISA.

[2] = system: MEXF 276 human melanoma tumor explant xenograft; assay: MEXF 276 human melanoma tumor explant xenograft study, tumor volume and plasma MIA ELISA; conditions: for Tumor Volume: day 20, mean ± SE; for tumor growth inhibition: day 20
Method: as §1
(§3) An MEXF 276 human melanoma tumor explant xenograft study and an MEXF1341 human melanoma tumor explant xenograft study were carried out as follows. The MEXF 276 human melanoma tumor cells and the MEXF1341 human melanoma tumor explant cells were originally derived from surgical specimens isolated from different melanoma patients (obtained from Oncotest GmbH, Institute for Experimental Oncology, Frieburg, Germany) and propagated as xenografts in nude mice. After removal of tumors from donor mice, samples were cut into fragments (1-2 mm diameter) and placed in RPMI 1640 medium before subcutaneous implantation into recipient male NMRI nu/nu mice (6-8 weeks old). Dosing typically began when tumors reached an average size of 6-8 mm in diameter. Animals were maintained under clean-room conditions in sterile filter-top cages and received sterile rodent chow and water ad libitum.
In a second experiment, MEXF 276 human melanoma tumor-bearing mice were randomized and dosed orally with CHIR-265 (100 or 10 mg/kg) or sorafenib (100 mg/kg) n=4/group. The first day of dosing was designated as Day 0. As such, the dosing schedule for CHIR-265 was 10 mg/kg on Day 0, 2, 4, 6, 14, 16 and 20. For CHIR-265 the dosing schedule was 100 mg/kg on Day 0, 2, 14, 16 and 20. Finally, the dosing schedule for sorafenib and PEG400 vehicle was 100 mg/kg every day on Day 0-20. […] Plasma samples were collected 4 hr after the last dose on Day 20 and stored at −80° C. prior to MIA analysis. MIA plasma levels were determined by an ELISA assay carried out as described in EXAMPLE 1.

[3] = system: MEXF 1341 human melanoma tumor explant xenograft; assay: MEXF 1341 human melanoma tumor explant xenograft study, tumor volume and plasma MIA ELISA; conditions: for tumor growth inhibition, significance vs. vehicle: MEXF 1341 (text prints MEXF 276), P>0.08 v. vehicle; for tumor growth inhibition, significance vs. vehicle / Tumor Volume: day 20; for Tumor Volume: mean ± SE
Method: as §1, §3
In a third experiment, MEXF 1341 human melanoma tumor-bearing mice were randomized and dosed orally with CHIR-265 (100 or 10 mg/kg) or sorafenib (100 mg/kg) n=4/group. The first day of dosing was designated as Day 0. As such, the dosing schedule for CHIR-265 (10 mg/kg) was 10 mg/kg on Day 0, 2, 4, 6, 14, 16 and 20. For CHIR-265 (100 mg/kg) the dosing schedule was 100 mg/kg on Day 0, 2, 14, 16 and 20. Finally, the dosing schedule for sorafenib and PEG400 vehicle was 100 mg/kg every day on Day 0-20. […] Plasma samples were collected 4 hr after the last dose on Day 20 and stored at −80° C. prior to MIA analysis. MIA plasma levels were determined by an ELISA assay carried out as described in EXAMPLE 1.

[4] = system: A375M human melanoma xenograft; assay: Kinetics of plasma MIA and tumor volume in A375M tumor-bearing mice (Example 3)
Method: as §1, §2
Methods: The kinetics of MIA concentrations in plasma following drug treatment were investigated as follows. A375M tumor-bearing mice were dosed orally either with CHIR-265 (100 mg/kg), CHIR-258 (60 mg/kg) or vehicle (n=10/group). Plasma samples were collected before dosing was initiated, and again on day 3, 8 and 13. Tumor volumes were measured at the same time points, using methods described in EXAMPLE 2.

[5] = system: CHL-1 human melanoma xenograft; assay: CHL-1 human melanoma xenograft study, tumor volume and plasma MIA ELISA (Example 4)
Method: as §1
A CHL-1 human melanoma xenograft study was carried out with female athymic nu/nu mice (8-12 weeks old) purchased from Charles River Laboratories (Wilmington, Mass.). Approximately 5×10^6 tumor cells in Matrigel™ were implanted subcutaneously (s.c.) into the hind flank region of mice. Dosing began when tumors reached an average size of 200 mm^3. Caliper measurements were performed twice weekly to estimate tumor volume using the formula: (a×b^2)×0.5, where “a” is the largest diameter and “b” is the length perpendicular to the diameter. […]

## Cn1c(Nc2ccc(C(F)(F)F)cc2)nc2cc(Oc3ccnc(-c4ncc(C(F)(F)F)[nH]4)c3)ccc21 [CHIR-265, {1-Methyl-5-[2-(5-trifluoromethyl-1H-imidazol-2-yl)-pyridin-4-yloxy]-1H-benzoimidazol-2-yl}-(4-trifluoromethyl-phenyl)-amine]
[1]; CHIR-265 100 mg/kg oral every other day, after four doses
  tumor regression as compared to initial tumor volume (250 mm^3): ~50%
[1]; CHIR-265 100 mg/kg oral every other day, day 10
  tumor growth inhibition compared to vehicle treatment: 70%
[1]; CHIR-265 100 mg/kg oral every other day, day 10, mean ± SE, 100 mg/kg
  Tumor Volume: 133±14.1 mm^3
[1]; CHIR-265 100 mg/kg, day 10, n=5/group
  vehicle median MIA concentration fold higher than CHIR-265 treated mice: 17 fold
[1]; after four doses of CHIR-265 100 mg/kg, plasma 48 h post fourth dose (day 10)
  MIA plasma levels: ~4 ng/mL
[2]; CHIR-265 100 mg/kg oral, 100 mg/kg
  Tumor Volume: 19±2.9 mm^3
[2]; CHIR-265 (10 mg/ml) per table head, 10 mg/kg in text, oral, 10 mg/kg
  Tumor Volume: 58±15.2 mm^3
[2]; CHIR-265 at both doses (100 and 10 mg/kg)
  tumor growth inhibition: > 97%
[3]
  tumor growth inhibition, significance vs. vehicle: did not cause significant tumor growth inhibition
[3]; MEXF 1341, CHIR-265 100 mg/kg oral, 100 mg/kg
  Tumor Volume: 575±214 mm^3
[3]; MEXF 1341, CHIR-265 (10 mg/ml) per table head, 10 mg/kg in text, oral, 10 mg/kg
  Tumor Volume: 1190±291 mm^3
[3]; MEXF 1341, both CHIR-265 treatments (100 and 10 mg/kg), Day 20, P<0.02
  reduction in plasma MIA: 2 fold
[4]; CHIR-265 100 mg/kg oral, day 3, baseline 27.8
  MIA plasma concentration (median): 10.4 ng/mL
[4]; CHIR-265 100 mg/kg, day 3
  reduction in MIA concentration vs. baseline: 62%
  tumor regression: 29%
[4]; CHIR-265 100 mg/kg, day 13
  MIA plasma concentration: undetectable

## CNC(=O)c1cc(Oc2ccc(NC(=O)Nc3ccc(Cl)c(C(F)(F)F)c3)cc2)ccn1 [Sorafenib, reference compound]
[2]; sorafenib 100 mg/kg every day
  tumor growth inhibition: 69%
[2]; sorafenib 100 mg/kg oral every day
  Tumor Volume: 887±196 mm^3
[2]; sorafenib 100 mg/kg, plasma 4 hr after last dose on Day 20
  median plasma MIA concentration: 28.9 ng/mL
[3]
  tumor growth inhibition, significance vs. vehicle: did not cause significant tumor growth inhibition
[3]; MEXF 1341, sorafenib 100 mg/kg oral every day
  Tumor Volume: 1338±264 mm^3
[3]; MEXF 1341, sorafenib 100 mg/kg, Day 20, P>0.17
  effect on plasma MIA levels: reduced plasma MIA levels

## CN1CCN(c2ccc3[nH]c(-c4c(N)c5c(F)cccc5[nH]c4=O)nc3c2)CC1 [CHIR-258, 4-amino-5-fluoro-3-[5-(4-methylpiperazin-1-yl)-1H-benzimidazol-2-yl]quinolin-2(1H)-one]
[4]; CHIR-258 60 mg/kg oral, day 3, 60 mg/kg
  change in MIA plasma concentration vs. vehicle: statistically significant lower levels; also recorded: statistically significant decrease in MIA plasma concentration
[4]; CHIR-258 60 mg/kg oral, day 13
  reduction in MIA levels compared to baseline: 63%
[4]; CHIR-258 60 mg/kg oral, from day 8, 60 mg/kg
  effect on tumor volume / tumor burden vs. vehicle: tumor growth inhibition, however regressions were not observed; also recorded: tumor growth inhibition; also recorded: statistically significant reduction in tumor burden
[5]; CHIR-258 30 mg/kg or 80 mg/kg oral once daily, by day 8, P<0.03
  effect on tumor volume vs. vehicle: significant tumor growth inhibition
[5]; both CHIR-258 groups (30 and 80 mg/kg), day 8 and subsequent time points
  plasma MIA levels: not detectable

— US8288087B2, “Use of melanoma inhibitory activity (MIA) protein as an early indicator for therapeutic response in melanoma” (Novartis AG, priority 2006, dated 2012)
